Data published in ChEMBL document CHEMBL5584341, “Discovery of Potent, Specific, and Orally Available NLRP3 Inflammasome Inhibitors Based on Pyridazine Scaffolds for the Treatment of Septic Shock and Peritonitis” (J Med Chem, 2024).
Active and inactive are the calls of the source. No cut-off for these calls is given here.

Tests used:
[1] = AUC(0 to t) in BALB/c mouse at 5 mg/kg, po measured upto 24 hrs by LC-MS/MS analysis; type: ADME, organism-based; conditions: in vivo
[2] = Tmax in BALB/c mouse at 5 mg/kg, po measured upto 24 hrs by LC-MS/MS analysis; type: ADME, organism-based; conditions: in vivo
[3] = AUC(0 to t) in BALB/c mouse at 5 mg/kg, iv measured upto 24 hrs by LC-MS/MS analysis; type: ADME, organism-based; conditions: in vivo
[4] = target: NACHT, LRR and PYD domains-containing protein 3 (Mus musculus) (UniProt Q8R4B8); test: Inhibition of LPS/nigericin induced NLRP3 inflammasome activation in mouse BMDMs assessed as reduction in pyroptosis by measuring […] at 2 to 31.25 nM; type: cell-based; conditions: BMDM, dose 2-31.25 nM
NACHT, LRR and PYD domains-containing protein 3 (Mus musculus), sequence (Q8R4B8 whole entry, the tested form may be a part): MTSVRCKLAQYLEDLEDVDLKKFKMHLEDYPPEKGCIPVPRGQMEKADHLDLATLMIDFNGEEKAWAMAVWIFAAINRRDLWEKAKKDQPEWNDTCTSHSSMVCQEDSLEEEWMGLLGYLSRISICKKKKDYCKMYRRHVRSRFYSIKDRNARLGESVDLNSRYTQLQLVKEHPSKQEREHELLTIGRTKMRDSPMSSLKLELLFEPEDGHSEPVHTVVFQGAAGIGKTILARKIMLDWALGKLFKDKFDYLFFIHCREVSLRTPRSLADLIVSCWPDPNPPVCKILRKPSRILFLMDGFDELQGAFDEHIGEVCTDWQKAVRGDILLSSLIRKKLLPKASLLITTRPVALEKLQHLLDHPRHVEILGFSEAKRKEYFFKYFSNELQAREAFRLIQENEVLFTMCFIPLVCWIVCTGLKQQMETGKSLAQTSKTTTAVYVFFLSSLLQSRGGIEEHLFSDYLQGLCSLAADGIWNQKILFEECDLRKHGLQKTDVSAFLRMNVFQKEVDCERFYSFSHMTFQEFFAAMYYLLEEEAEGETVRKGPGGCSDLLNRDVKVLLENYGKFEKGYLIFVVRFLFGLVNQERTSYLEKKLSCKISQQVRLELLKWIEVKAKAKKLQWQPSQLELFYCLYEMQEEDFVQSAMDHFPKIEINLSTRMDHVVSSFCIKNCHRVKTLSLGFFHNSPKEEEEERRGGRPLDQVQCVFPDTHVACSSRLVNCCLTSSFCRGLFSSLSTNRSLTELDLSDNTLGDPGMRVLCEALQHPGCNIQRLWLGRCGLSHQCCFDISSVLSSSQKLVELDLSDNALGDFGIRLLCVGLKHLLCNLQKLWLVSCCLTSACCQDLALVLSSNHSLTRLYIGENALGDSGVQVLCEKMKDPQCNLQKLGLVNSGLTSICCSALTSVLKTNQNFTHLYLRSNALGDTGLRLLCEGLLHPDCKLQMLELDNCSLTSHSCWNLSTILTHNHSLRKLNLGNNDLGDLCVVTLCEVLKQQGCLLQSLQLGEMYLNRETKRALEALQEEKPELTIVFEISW

[5] = target: hERG (KCNH2) (Homo sapiens, UniProt Q12809); test: Inhibition of human ERG at 20 uM relative to control
hERG (KCNH2), sequence (Q12809 whole entry): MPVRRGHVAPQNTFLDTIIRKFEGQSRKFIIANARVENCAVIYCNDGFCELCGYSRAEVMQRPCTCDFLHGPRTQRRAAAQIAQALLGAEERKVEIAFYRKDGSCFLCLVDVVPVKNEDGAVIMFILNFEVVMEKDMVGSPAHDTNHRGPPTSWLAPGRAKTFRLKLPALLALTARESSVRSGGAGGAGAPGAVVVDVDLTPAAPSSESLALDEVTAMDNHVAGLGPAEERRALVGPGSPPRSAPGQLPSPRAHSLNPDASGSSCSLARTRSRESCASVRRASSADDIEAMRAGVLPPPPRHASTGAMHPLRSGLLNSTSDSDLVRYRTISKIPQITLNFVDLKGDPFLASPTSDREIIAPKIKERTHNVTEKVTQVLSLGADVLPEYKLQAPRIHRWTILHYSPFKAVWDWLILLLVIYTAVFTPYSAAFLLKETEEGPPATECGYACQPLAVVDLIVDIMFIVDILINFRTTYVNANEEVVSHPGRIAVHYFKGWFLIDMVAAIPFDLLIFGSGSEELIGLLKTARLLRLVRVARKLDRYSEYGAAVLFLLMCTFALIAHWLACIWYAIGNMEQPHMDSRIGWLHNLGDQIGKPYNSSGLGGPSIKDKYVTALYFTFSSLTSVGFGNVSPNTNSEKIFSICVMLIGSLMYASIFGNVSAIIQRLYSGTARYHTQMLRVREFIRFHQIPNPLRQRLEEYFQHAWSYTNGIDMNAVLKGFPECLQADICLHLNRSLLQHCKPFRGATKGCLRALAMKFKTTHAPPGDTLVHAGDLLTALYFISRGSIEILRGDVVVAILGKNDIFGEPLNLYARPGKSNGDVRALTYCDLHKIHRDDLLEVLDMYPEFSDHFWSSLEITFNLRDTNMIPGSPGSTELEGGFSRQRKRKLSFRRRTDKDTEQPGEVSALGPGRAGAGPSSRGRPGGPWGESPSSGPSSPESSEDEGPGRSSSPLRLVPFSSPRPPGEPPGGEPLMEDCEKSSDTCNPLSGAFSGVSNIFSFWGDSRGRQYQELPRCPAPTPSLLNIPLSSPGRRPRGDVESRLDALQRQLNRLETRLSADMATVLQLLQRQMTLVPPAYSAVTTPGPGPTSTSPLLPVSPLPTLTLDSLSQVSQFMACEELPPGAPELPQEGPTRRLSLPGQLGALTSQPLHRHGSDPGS

[6] = tested on: LX-2; test: Cytotoxicity against human LX-2 cells at 20 uM incubated for 72 hrs by MTT assay; type: toxicity, cell-based; conditions: lx-2, 72 h
[7] = target: NACHT, LRR and PYD domains-containing protein 3 (Mus musculus) (UniProt Q8R4B8); test: Inhibition of NLRP3 inflammasome activation in LPS stimulated mouse BMDMs assessed as reduction in IL-1beta release at 2 to 31.25 nM pretreated with LPS for 3 hrs followed by compound addition for 40 mins prior to MSU stimulation for 6 hrs by ELISA; type: cell-based; conditions: BMDM, dose 2-31.25 nM, time 400.0 min
[8] = target: NACHT, LRR and PYD domains-containing protein 3 (Mus musculus) (UniProt Q8R4B8); test: Inhibition of NLRP3 inflammasome activation in mouse BMDMs assessed as effect on TNF-alpha production at 2 to 31.25 nM pretreated with compound for 40 mins followed by LPS/ATP stimulation; type: cell-based; conditions: BMDM, dose 2-31.25 nM
[9] = target: NACHT, LRR and PYD domains-containing protein 3 (Mus musculus) (UniProt Q8R4B8); test: Inhibition of NLRP3 inflammasome activation in mouse BMDMs assessed as effect on NLRP3 expression at 2 to 31.25 nM pretreated with LPS for 3 hrs followed by compound addition for 40 mins; type: cell-based; conditions: BMDM, dose 2-31.25 nM
[10] = MRT(0 to t) in BALB/c mouse at 5 mg/kg, iv measured upto 24 hrs by LC-MS/MS analysis; type: ADME, organism-based; conditions: in vivo
[11] = MRT(0 to t) in BALB/c mouse at 5 mg/kg, po measured upto 24 hrs by LC-MS/MS analysis; type: ADME, organism-based; conditions: in vivo
[12] = target: NACHT, LRR and PYD domains-containing protein 3 (Mus musculus) (UniProt Q8R4B8); test: Inhibition of NLRP3 inflammasome activation in mouse BMDMs assessed as effect on NLRP3 expression at 2 to 31.25 nM pretreated with compound for 40 mins followed by LPS/nigericin stimulation; type: cell-based; conditions: BMDM, dose 2-31.25 nM
[13] = Inhibition of IL-1beta release in PMA-differentiated/ LPS and nigericin stimulated human THP-1 cells at 0.5 uM pretreated with LPS for 3 hrs followed by incubation with compound for 40 mins and later stimulated with nigericin for 40 mins by ELISA; type: functional; conditions: THP-1, 1.333 h, time 80 min
[14] = Metabolic stability in human liver microsomes assessed as half life at 10 uM […] in presence of NADPH by LC-MS/MS analysis; type: ADME, Microsome
[15] = target: NACHT, LRR and PYD domains-containing protein 3 (Mus musculus) (UniProt Q8R4B8); test: Inhibition of NLRP3 inflammasome activation in mouse BMDMs assessed as effect on TNF-alpha production at 2 to 31.25 nM pretreated with compound for 40 mins followed by LPS/ nigericin stimulation; type: cell-based; conditions: BMDM, dose 2-31.25 nM
[16] = target: NACHT, LRR and PYD domains-containing protein 3 (Mus musculus) (UniProt Q8R4B8); test: Inhibition of NLRP3 inflammasome activation in LPS/nigericin stimulated mouse BMDMs assessed as effect on NLRP3 expression pretreated with LPS for 3 hrs followed by compound addition for 40 mins prior to nigericin stimulation for 40 mins by Western blotting analysis; type: cell-based; conditions: BMDM, time 80.0 min
[17] = target: T1, Interferon-inducible protein AIM2 (Mus musculus) (UniProt Q91VJ1); test: Inhibition of poly dA:dT stimulated AIM2 inflammasome activation in mouse BMDMs assessed as reduction in IL-1beta secretion pretreated with LPS for 3 hrs followed by compound addition for 40 mins prior to poly dA:dT stimulation for 6 hrs by Western blotting analysis; type: cell-based; conditions: BMDM, time 400.0 min
T1 sequence (whole entry): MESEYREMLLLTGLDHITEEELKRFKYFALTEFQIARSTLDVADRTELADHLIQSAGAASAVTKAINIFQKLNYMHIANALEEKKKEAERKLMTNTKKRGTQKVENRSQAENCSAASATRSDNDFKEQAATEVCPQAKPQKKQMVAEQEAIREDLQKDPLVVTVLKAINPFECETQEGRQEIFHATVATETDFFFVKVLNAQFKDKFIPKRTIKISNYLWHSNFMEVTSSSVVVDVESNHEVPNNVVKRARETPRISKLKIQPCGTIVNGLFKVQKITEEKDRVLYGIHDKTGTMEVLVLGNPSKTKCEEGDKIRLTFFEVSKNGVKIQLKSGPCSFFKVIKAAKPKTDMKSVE

[18] = tested on: AML12; test: Cytotoxicity against mouse AML12 cells at 5 uM incubated for 72 hrs by MTT assay; type: toxicity, cell-based; conditions: aml12, 72 h
[19] = target: NACHT, LRR and PYD domains-containing protein 3 (Mus musculus) (UniProt Q8R4B8); test: Inhibition of NLRP3 inflammasome activation in LPS/nigericin stimulated mouse BMDMs assessed as reduction in IL-1beta release pretreated with LPS for 3 hrs followed by compound addition for 40 mins prior to nigericin stimulation for 40 mins by Western blotting analysis; type: cell-based; conditions: BMDM, time 80.0 min
[20] = target: Cytochrome P450 2C19 (Homo sapiens, UniProt P33261); test: Inhibition of human CYP2C19 upto 10 uM relative to control; type: ADME
Cytochrome P450 2C19, sequence (P33261 whole entry): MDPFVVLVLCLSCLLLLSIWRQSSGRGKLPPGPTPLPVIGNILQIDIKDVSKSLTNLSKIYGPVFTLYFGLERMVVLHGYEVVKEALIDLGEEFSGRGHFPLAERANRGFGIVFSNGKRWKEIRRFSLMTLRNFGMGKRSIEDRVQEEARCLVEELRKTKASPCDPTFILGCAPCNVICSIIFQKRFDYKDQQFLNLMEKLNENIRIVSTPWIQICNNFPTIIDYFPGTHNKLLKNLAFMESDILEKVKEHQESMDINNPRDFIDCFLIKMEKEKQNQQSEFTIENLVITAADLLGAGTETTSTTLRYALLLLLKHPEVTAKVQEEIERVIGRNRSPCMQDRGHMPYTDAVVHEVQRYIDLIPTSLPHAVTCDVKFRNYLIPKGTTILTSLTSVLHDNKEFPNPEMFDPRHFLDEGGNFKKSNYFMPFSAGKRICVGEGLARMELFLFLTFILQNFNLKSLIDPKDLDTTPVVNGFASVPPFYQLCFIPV

[21] = tested on: Mus musculus; test: Inhibition of MSU crystal induced peritonitis in BALB/c mouse assessed as reduction in serum IL-1beta level at 50 to 100 mg/kg, ip pretreated with LPS for 3 hrs followed by compound addition prior to MSU stimulation for 6 hrs by ELISA; type: functional, organism-based; conditions: dose 50-100 mg/kg
[22] = tested on: Mus musculus; test: Antiinflammatory activity against LPS induced septic shock in BALB/c mouse assessed as reduction in serum IL-1beta level at 25 mg/kg, ip pretreated for 1 hr followed by LPS stimulation and measured after 3 hrs by ELISA; type: functional, organism-based; conditions: time 4.0 hrs
[23] = tested on: THP-1; test: Inhibition of nigericin induced ASC specks formation in PMA differentiated human THP-1 cells at 5 to 80 nM pretreated with LPS for 3 hrs followed by compound addition for 40 mins prior to nigericin stimulation for 40 mins by Western blotting analysis; type: functional, cell-based; conditions: dose 5-80 nM, time 80.0 min
[24] = target: NLR family CARD domain-containing protein 4 (Mus musculus) (UniProt Q3UP24); test: Inhibition of flagellin stimulated NLRC4 inflammasome activation in mouse BMDMs assessed as reduction in IL-1beta secretion at 0.1 to 10 uM pretreated with LPS for 3 hrs followed by compound addition for 40 mins prior to flagellin stimulation for 6 hrs by ELISA; type: cell-based; conditions: BMDM, dose 0.1-10 µM, time 400.0 min
NLR family CARD domain-containing protein 4 (Mus musculus), sequence (Q3UP24 whole entry, the tested form may be a part): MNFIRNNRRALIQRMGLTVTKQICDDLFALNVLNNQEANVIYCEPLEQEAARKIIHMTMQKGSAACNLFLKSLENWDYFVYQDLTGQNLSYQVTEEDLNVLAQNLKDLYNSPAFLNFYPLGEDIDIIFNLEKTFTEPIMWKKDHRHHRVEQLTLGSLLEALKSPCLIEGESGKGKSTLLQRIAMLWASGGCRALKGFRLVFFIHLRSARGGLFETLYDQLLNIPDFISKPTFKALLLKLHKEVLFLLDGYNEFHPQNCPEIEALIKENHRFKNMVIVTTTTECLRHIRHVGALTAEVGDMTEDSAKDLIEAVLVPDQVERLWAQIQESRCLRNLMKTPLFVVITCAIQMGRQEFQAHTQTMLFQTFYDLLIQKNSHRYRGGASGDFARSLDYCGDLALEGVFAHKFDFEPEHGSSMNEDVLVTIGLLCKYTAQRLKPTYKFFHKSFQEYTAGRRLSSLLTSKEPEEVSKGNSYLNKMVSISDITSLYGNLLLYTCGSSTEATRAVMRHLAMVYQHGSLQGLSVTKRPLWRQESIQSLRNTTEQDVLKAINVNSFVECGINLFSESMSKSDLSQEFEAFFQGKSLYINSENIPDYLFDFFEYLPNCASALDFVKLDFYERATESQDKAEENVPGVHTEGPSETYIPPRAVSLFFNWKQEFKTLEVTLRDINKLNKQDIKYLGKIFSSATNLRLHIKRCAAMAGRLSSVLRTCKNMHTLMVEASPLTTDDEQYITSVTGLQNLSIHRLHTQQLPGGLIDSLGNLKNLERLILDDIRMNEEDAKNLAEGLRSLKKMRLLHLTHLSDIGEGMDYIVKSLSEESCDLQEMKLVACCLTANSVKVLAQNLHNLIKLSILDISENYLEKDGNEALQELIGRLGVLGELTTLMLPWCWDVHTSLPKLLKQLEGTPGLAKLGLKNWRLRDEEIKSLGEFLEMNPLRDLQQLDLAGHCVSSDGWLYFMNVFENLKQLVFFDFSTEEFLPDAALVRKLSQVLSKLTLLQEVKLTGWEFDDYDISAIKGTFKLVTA

[25] = target: Cytochrome P450 2C9 (Homo sapiens, UniProt P11712); test: Inhibition of human CYP2C9 upto 10 uM relative to control; type: ADME
Cytochrome P450 2C9, sequence (P11712 whole entry): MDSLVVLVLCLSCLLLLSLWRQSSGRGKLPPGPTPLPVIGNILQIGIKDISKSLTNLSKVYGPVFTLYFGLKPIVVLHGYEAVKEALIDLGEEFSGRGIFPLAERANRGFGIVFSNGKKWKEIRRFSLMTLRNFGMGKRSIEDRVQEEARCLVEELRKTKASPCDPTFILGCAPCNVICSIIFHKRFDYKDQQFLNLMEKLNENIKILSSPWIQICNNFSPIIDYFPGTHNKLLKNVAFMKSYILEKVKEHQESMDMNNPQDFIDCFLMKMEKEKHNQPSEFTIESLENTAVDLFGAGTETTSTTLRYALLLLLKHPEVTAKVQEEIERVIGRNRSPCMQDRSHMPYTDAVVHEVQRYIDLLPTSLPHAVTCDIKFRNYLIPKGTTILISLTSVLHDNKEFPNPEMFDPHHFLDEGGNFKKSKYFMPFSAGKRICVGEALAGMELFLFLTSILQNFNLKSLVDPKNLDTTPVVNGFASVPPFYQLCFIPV

[26] = tested on: THP-1; test: Inhibition of nigericin induced ASC oligomerization in PMA differentiated human THP-1 cells at 5 to 80 nM pretreated compound for 40 mins followed by nigericin stimulation by immunofluorescence analysis; type: functional, cell-based; conditions: dose 5-80 nM
[27] = target: NACHT, LRR and PYD domains-containing protein 3 (Mus musculus) (UniProt Q8R4B8); test: Inhibition of NLRP3 inflammasome activation in mouse BMDMs assessed as effect on pro-IL-1beta expression at 2 to 31.25 nM pretreated with compound for 40 mins followed by LPS/nigericin stimulation; type: cell-based; conditions: BMDM, dose 2-31.25 nM

`OCCN1CCC[C@@H](Nc2nnc(-c3ccc4occc4c3O)c3c2C2CCC3CC2)C1` showed an AUC(0-t) at 24 h [1] of 5.94 µg·h/mL, a Tmax [2] of 1.83 h and an AUC(0-t) at 24 h [3] of 9.52 µg·h/mL. For the same compound, the inhibition [4] was “Active”, the inhibition at 20 µM [5] was 49.1% and the Activity [6] was “Toxic”. For the same compound, the inhibition [7] was “Active”, the inhibition [8] was “inactive” and the inhibition [9] was “inactive”. The MRT last at 24 h [10] was 4.1 h, the MRT last at 24 h [11] was 6.07 h and the inhibition [12] was “inactive”. For the same compound, the inhibition at 0.5 µM [13] was 98.9%, the half-life at 10 µM [14] was greater than 2 h and the inhibition [15] was “inactive”. The inhibition [16] was “inactive”, the inhibition [17] was “inactive” and the Activity [18] was “Non-Toxic”. The inhibition [19] was “Dose-Dependent Effect”, the “inhibition (INH)” value [20] was “Not Active” and the inhibition [21] was “Active”. The Activity [22] was “Active”, the inhibition [23] was “Active” and the inhibition [24] was “inactive”. For the same compound, the “inhibition (INH)” value [25] was “Not Active”, the inhibition [26] was “Active” and the inhibition [27] was “inactive”.
